{"source": "patent US8748481B2", "about": "“Method for treating gastrointestinal disorder” (Sucampo AG, priority 2004, dated 2014)", "origin": "cited, not measured here", "system": "patients with IBS with constipation / chronic idiopathic constipation", "settings": "cited from earlier work", "note": "Counter-ions that a name gives are not always drawn.", "data": [{"compound": "[H]/N=C(/NCCCCC)N/N=C/c1c[nH]c2ccc(OC)cc12", "note": "[Zelnorm®, tegaserod maleate]", "values": [{"measurement": "Return of symptoms after stopping", "setting": "after patients stop taking the drug", "value": "may return within 1 or 2 weeks"}, {"measurement": "Treatment effect over placebo in patients aged 65 years and older", "setting": "subgroup analyses", "value": "no significant treatment effect"}, {"measurement": "Response rates vs. placebo in males", "setting": "two randomized, placebo-controlled, double-blind studies enrolling 288 males", "value": "no significant differences"}]}]}
